Experimental findings from ChEMBL document CHEMBL4680251, “Discovery of a 2-pyridinyl urea-containing compound YD57 as a potent inhibitor of apoptosis signal-regulating kinase 1 (ASK1)” (Eur J Med Chem, 2020) are described below.

The subject of assay [1] is HepG2. Briefly: Induction of cell cycle arrest in human HepG2 cells assessed as accumulation at G0/G1 phase at 4 uM incubated for 24 hrs by propidium iodide staining based flow cytometry (reference value: 38.34%). It counts as functional. A general note: In flow cytometry, cells or beads pass a laser one at a time.
Assay [2] deals with Glycogen synthase kinase-3 beta (Homo sapiens, UniProt P49841). Briefly: Inhibition of human recombinant GSK3 beta H350L mutant using YRRAAVPPSPSLSR as substrate incubated for 40 mins in presence of [gamma-33ATP] by radiometric scintillation counting analysis.
Sequence of Glycogen synthase kinase-3 beta (P49841 whole entry): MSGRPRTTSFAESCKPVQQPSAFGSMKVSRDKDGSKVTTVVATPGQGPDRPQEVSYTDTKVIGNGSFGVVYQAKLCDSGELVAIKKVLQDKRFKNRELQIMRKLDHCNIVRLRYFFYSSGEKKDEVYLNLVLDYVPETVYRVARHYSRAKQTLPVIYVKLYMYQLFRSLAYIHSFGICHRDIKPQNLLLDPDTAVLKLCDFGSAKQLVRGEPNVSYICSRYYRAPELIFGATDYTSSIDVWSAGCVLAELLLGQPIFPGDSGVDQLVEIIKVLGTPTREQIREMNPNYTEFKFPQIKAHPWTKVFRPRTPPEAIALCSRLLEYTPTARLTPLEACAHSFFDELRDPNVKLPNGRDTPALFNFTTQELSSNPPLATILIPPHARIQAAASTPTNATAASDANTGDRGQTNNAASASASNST
Assay [3] relates to HepG2. Briefly: Induction of cell cycle arrest in human HepG2 cells assessed as accumulation at S phase at 2 uM incubated for 24 hrs by propidium iodide staining based flow cytometry (reference value: 33.27%). In kind it is functional.
For assay [4], the system named is HepG2. Briefly: Induction of cell cycle arrest in human HepG2 cells assessed as accumulation at G0/G1 phase at 8 uM incubated for 24 hrs by propidium iodide staining based flow cytometry (reference value: 38.34%). In kind it is functional.
For assay [5], the system named is HepG2. Briefly: Induction of cell cycle arrest in human HepG2 cells assessed as accumulation at G2/M phase at 1 uM incubated for 24 hrs by propidium iodide staining based flow cytometry (reference value: 33.49%). It counts as functional.
Assay [6] relates to HepG2. Kind of assay: Induction of cell cycle arrest in human HepG2 cells assessed as accumulation at G2/M phase at 16 uM incubated for 24 hrs by propidium iodide staining based flow cytometry (reference value: 33.49%). It counts as functional.
Assay [7] has as its system HepG2. Briefly: Induction of cell cycle arrest in human HepG2 cells assessed as accumulation at S phase at 8 uM incubated for 24 hrs by propidium iodide staining based flow cytometry (reference value: 33.27%). It counts as functional.
The subject of assay [8] is HepG2. Kind of assay: Induction of cell cycle arrest in human HepG2 cells assessed as accumulation at G2/M phase at 4 uM incubated for 24 hrs by propidium iodide staining based flow cytometry (reference value: 33.49%). It counts as functional.
Assay [9] has as its system HepG2. Briefly: Induction of cell cycle arrest in human HepG2 cells assessed as accumulation at G0/G1 phase at 16 uM incubated for 24 hrs by propidium iodide staining based flow cytometry (reference value: 38.34%). It counts as functional.
The target in another assay is CDK2/Cyclin A2 (Homo sapiens, UniProt P24941). Briefly: Inhibition of full length human recombinant CDK2/Cyclin A using histone H1 as substrate incubated for 40 mins in presence of [gamma-33ATP] by radiometric scintillation counting analysis. It counts as protein-complex assay.
In assay [10] the test system is HepG2. Briefly: Induction of cell cycle arrest in human HepG2 cells assessed as accumulation at G2/M phase at 0.5 uM incubated for 24 hrs by propidium iodide staining based flow cytometry (reference value: 33.49%). In kind it is functional.
In assay [11] the test system is HepG2. Briefly: Induction of cell cycle arrest in human HepG2 cells assessed as accumulation at G0/G1 phase at 0.5 uM incubated for 24 hrs by propidium iodide staining based flow cytometry (reference value: 38.34%). In kind it is functional.
Assay [12] relates to HepG2. Briefly: Induction of cell cycle arrest in human HepG2 cells assessed as accumulation at S phase at 1 uM incubated for 24 hrs by propidium iodide staining based flow cytometry (reference value: 33.27%). It counts as functional.
Assay [13] concerns HepG2. Briefly: Induction of cell cycle arrest in human HepG2 cells assessed as accumulation at S phase at 0.5 uM incubated for 24 hrs by propidium iodide staining based flow cytometry (reference value: 33.27%). It counts as functional.
Assay [14] has as its system HepG2. Kind of assay: Induction of cell cycle arrest in human HepG2 cells assessed as accumulation at G0/G1 phase at 1 uM incubated for 24 hrs by propidium iodide staining based flow cytometry (reference value: 38.34%). In kind it is functional.
The target of assay [15] is Non-receptor tyrosine-protein kinase TYK2 (Homo sapiens, UniProt P29597). Briefly: Inhibition of human recombinant TYK2 (875 to end residues) using GGMEDIYFEFMGG as substrate incubated for 40 mins in presence of [gamma-33ATP] by radiometric scintillation counting analysis.
Sequence of Non-receptor tyrosine-protein kinase TYK2 (P29597 whole entry): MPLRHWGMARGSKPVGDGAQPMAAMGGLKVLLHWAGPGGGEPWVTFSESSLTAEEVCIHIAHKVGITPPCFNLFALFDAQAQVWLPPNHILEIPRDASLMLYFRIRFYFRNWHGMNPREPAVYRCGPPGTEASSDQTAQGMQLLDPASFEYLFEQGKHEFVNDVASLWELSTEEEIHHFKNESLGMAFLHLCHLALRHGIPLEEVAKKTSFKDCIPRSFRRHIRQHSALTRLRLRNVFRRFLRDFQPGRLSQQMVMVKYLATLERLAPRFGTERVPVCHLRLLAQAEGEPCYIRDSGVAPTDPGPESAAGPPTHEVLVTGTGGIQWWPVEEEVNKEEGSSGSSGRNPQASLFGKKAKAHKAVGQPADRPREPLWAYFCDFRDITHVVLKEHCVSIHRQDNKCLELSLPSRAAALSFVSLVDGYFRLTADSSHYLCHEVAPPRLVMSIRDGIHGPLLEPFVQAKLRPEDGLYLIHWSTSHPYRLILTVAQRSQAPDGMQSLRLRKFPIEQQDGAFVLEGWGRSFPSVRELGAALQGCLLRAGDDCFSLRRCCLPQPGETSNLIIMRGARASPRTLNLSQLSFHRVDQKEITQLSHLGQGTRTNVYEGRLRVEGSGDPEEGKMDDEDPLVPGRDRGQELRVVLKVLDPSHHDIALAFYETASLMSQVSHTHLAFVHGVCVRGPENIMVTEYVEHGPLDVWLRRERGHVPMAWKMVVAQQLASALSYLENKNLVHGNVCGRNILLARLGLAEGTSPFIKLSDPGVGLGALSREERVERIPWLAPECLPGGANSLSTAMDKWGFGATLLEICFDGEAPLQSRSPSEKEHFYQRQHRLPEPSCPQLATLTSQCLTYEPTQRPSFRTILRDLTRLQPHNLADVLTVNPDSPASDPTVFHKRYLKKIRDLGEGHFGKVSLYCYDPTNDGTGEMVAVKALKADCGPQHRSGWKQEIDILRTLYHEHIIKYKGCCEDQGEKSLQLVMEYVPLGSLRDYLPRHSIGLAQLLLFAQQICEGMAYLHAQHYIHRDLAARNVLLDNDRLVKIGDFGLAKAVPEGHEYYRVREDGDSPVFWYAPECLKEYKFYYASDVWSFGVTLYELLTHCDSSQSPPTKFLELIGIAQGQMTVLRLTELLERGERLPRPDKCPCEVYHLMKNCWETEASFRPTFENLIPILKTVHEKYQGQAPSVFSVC
Assay [16] in a line: Inhibition of human full length recombinant CDK9/cyclin T1 using KTFCGTPEYLAPE as substrate incubated for 40 mins in presence of [gamma-33ATP] by radiometric scintillation counting analysis.
The test system of assay [17] is HepG2. Briefly: Induction of cell cycle arrest in human HepG2 cells assessed as accumulation at S phase at 16 uM incubated for 24 hrs by propidium iodide staining based flow cytometry (reference value: 33.27%). It counts as functional.
The next assay deals with CDK3/Cyclin E (Homo sapiens, UniProt Q00526). Kind of assay: Inhibition of full length human recombinant CDK3/Cyclin E using histone H1 as substrate incubated for 40 mins in presence of [gamma-33ATP] by radiometric scintillation counting analysis. It counts as protein-complex assay.
Sequence of CDK3/Cyclin E (P24864 whole entry): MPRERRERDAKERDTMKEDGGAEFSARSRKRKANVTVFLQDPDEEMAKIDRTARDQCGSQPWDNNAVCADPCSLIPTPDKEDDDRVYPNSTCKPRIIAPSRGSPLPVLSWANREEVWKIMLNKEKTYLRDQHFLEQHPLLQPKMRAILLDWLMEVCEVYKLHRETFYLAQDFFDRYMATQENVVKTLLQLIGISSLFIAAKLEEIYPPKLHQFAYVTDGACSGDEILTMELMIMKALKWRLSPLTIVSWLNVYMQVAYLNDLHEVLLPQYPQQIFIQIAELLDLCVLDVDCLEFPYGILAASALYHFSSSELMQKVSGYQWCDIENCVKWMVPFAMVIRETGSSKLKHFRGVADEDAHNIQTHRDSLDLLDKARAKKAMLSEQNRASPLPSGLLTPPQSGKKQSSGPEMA
Sequence of CDK3/Cyclin E (Q00526 whole entry): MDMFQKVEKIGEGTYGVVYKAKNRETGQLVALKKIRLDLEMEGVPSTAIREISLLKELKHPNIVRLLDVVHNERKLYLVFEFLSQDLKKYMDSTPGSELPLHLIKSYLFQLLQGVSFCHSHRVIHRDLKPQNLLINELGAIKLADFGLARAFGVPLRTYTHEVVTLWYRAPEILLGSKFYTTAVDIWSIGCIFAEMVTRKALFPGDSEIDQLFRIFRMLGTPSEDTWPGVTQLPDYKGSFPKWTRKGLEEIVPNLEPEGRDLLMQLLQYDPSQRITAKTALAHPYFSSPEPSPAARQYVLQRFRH
The test system of assay [18] is HepG2. Kind of assay: Induction of cell cycle arrest in human HepG2 cells assessed as accumulation at G0/G1 phase at 2 uM incubated for 24 hrs by propidium iodide staining based flow cytometry (reference value: 38.34%). In kind it is functional.

As a reminder, the IC50 is the point on the concentration scale where inhibition reaches its midpoint. For `C[C@H](CO)n1cnnc1-c1cccc(NC(=O)Nc2cc3ccccn3n2)n1`, the Activity in the assay on HepG2 [1] turned out to be 66.33%; in the assay with HepG2 [3], 7.15%; with HepG2 [4], 66.65%; in the assay on HepG2 [5] it was 30.59%; with HepG2 [6], 32.64%; in the assay with HepG2 [7], 8.95%. Moreover, the Activity with HepG2 [8] is 34.25%; in the assay on HepG2 [9] it was 69.77%; with HepG2 [10], 27.33%; with HepG2 [11] it was 46.22%; with HepG2 [12], 11.7%; with HepG2 [13] it was 31.94%. Moreover, the Activity with HepG2 [14] was found to be 60.13%; with HepG2 [17] it was 9.63%; in the assay on HepG2 [18], 63.79%. Moreover, the IC50 in assay [2] was 283 nM; on CDK2/Cyclin A2 it was 352 nM; in assay [15], 1690 nM; in assay [16], 94.2 nM; at CDK3/Cyclin E, 117 nM.
